The compounds below were run against T1, human PAH with the R408W mutation (A375 R408W cells) (Homo sapiens, UniProt P00439, R408W) (assay: Cell Based Phenylalanine Flux Assay). Conditions: A375 R408W cells; 24 hrs with compound, then 20 μM sepiapterin and 800 μM 13C9,15N-Phenylalanine for 4 hours; 13C-Tyrosine by LC-MS; average where tested multiple times.
T1 construct: expressed in transfected cells
T1 sequence (P00439 1-452 R408W): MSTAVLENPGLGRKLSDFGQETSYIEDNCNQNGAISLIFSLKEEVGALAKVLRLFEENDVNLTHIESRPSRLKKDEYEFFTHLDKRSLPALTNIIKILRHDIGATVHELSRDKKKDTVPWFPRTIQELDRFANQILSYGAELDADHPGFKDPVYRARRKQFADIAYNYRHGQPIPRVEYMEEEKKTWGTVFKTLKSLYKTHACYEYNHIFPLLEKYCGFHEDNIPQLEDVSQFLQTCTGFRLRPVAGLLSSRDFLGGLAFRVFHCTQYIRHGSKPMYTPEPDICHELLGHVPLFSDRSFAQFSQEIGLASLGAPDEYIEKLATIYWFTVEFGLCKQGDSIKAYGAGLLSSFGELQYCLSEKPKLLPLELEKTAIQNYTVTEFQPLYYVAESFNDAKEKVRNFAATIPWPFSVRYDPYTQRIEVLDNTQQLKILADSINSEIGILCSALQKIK
Outline: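 Phenylalanine-to-tyrosine flux is measured in A375 cells carrying stable human R408W PAH. After 24 h compound exposure, 13C9,15N-Phe (800 μM) with sepiapterin (20 μM) is supplied for 4 h and media 13C-Tyr is read by LC-MS; AC50s are binned.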
In the case of `O=C(c1ocnc1C(F)F)N1CCc2[nH]cnc2[C@H]1c1nc2ccc(Br)cc2o1` [Example 145, (S)-(4-(6-bromobenzo[d]oxazol-2-yl)-6,7-dihydro-1H-imidazo[4,5-c]pyridin-5(4H)-yl)(4-(difluoromethyl)oxazol-5-yl)methanone], the AC50 is reported as no more than 0.5 µM.
`C[C@H](O)c1nc(C(F)F)c(C(=O)N2CCc3[nH]cnc3[C@H]2c2nc3ccc(F)cc3o2)o1` [Example 231, (4-(difluoromethyl)-2-((S)-1-hydroxyethyl)oxazol-5-yl)((S)-4-(6-fluorobenzo[d]oxazol-2-yl)-6,7-dihydro-1H-imidazo[4,5-c]pyridin-5(4H)-yl)methanone] showed an AC50 of 0.5 to 1 µM.
With `CC(C)(C)c1ncc(C(=O)N2CCc3[nH]cnc3[C@@H]2c2nc3cc(F)ccc3o2)s1` [Example 18, (R)-(2-(tert-butyl)thiazol-5-yl)(4-(5-fluorobenzo[d]oxazol-2-yl)-6,7-dihydro-1H-imidazo[4,5-c]pyridin-5(4H)-yl)methanone] the AC50 was 1 to 5 µM.
For `Cc1cc(C(=O)N2CCc3[nH]cnc3[C@@H]2c2nc3cccc(F)c3o2)n(C)n1` [Example 770, (R)-(1,3-dimethyl-1H-pyrazol-5-yl)(4-(7-fluorobenzo[d]oxazol-2-yl)-6,7-dihydro-1H-imidazo[4,5-c]pyridin-5(4H)-yl)methanone], the AC50 was 1 to 5 µM.
`O=C(c1cnn2ccccc12)N1Cc2[nH]cnc2[C@H]1c1nc2ccccc2o1` [Example 929, (S)-(4-(benzo[d]oxazol-2-yl)-4,6-dihydropyrrolo[3,4-d]imidazol-5(1H)-yl)(pyrazolo[1,5-a]pyridin-3-yl)methanone] gave an AC50 of 1 to 5 µM.
Compound `O=C(c1ocnc1C(F)F)N1CCc2[nH]cnc2[C@@H]1c1nc2c(F)c(F)ccc2o1` [Example 349, (R)-(4-(4,5-difluorobenzo[d]oxazol-2-yl)-6,7-dihydro-1H-imidazo[4,5-c]pyridin-5(4H)-yl)(4-(difluoromethyl)oxazol-5-yl)methanone] has an AC50 of 0.5 to 1 µM.
Work on `Cc1c(F)ccc2oc([C@@H]3c4nc[nH]c4CCN3C(=O)c3ocnc3C(F)F)nc12` [Example 722, (S)-(4-(difluoromethyl)oxazol-5-yl)(4-(5-fluoro-4-methylbenzo[d]oxazol-2-yl)-6,7-dihydro-1H-imidazo[4,5-c]pyridin-5(4H)-yl)methanone] yielded an AC50 of no more than 0.5 µM.
`Cn1cc(-c2nc(C(F)(F)F)c(C(=O)N3CCc4[nH]cnc4[C@@H]3c3nc4cccc(F)c4o3)o2)cn1` [Example 670, (R)-(4-(7-fluorobenzo[d]oxazol-2-yl)-6,7-dihydro-1H-imidazo[4,5-c]pyridin-5(4H)-yl)(2-(1-methyl-1H-pyrazol-4-yl)-4-(trifluoromethyl)oxazol-5-yl)methanone] was tested, and the AC50 was no more than 0.5 µM.
`COc1cccc2nc([C@@H]3c4nc[nH]c4CCN3C(=O)c3cc(C(F)F)nn3C)oc12` [Example 777, (S)-(3-(difluoromethyl)-1-methyl-1H-pyrazol-5-yl)(4-(7-methoxybenzo[d]oxazol-2-yl)-6,7-dihydro-1H-imidazo[4,5-c]pyridin-5(4H)-yl)methanone] showed an AC50 of no more than 0.5 µM.
`O=C(c1oc(-c2ccc(F)cn2)nc1C(F)F)N1CCc2[nH]cnc2[C@H]1c1nc2cc(F)ccc2o1` [Example 418, (S)-(4-(difluoromethyl)-2-(5-fluoropyridin-2-yl)oxazol-5-yl)(4-(5-fluorobenzo[d]oxazol-2-yl)-6,7-dihydro-1H-imidazo[4,5-c]pyridin-5(4H)-yl)methanone] gave an AC50 of no more than 0.5 µM.
In the case of `Cc1cc(C(=O)N2CCc3[nH]cnc3[C@@H]2c2nc3ccccc3o2)n(C)n1` [Example 780, (R)-(4-(benzo[d]oxazol-2-yl)-6,7-dihydro-1H-imidazo[4,5-c]pyridin-5(4H)-yl)(1,3-dimethyl-1H-pyrazol-5-yl)methanone], the AC50 is reported as 1 to 5 µM.
With `Cn1ccc(-c2nnc(C(=O)N3CCc4[nH]cnc4[C@@H]3c3nc4ccc(F)cc4o3)o2)n1` [Example 322, (R)-(4-(6-fluorobenzo[d]oxazol-2-yl)-6,7-dihydro-1H-imidazo[4,5-c]pyridin-5(4H)-yl)(5-(1-methyl-1H-pyrazol-3-yl)-1,3,4-oxadiazol-2-yl)methanone] the AC50 was 1 to 5 µM.
Compound `Cc1ccc2oc([C@H]3c4nc[nH]c4CCN3C(=O)c3ocnc3C(F)(F)F)nc2c1` [Example 64, (R)-(4-(5-methylbenzo[d]oxazol-2-yl)-6,7-dihydro-1H-imidazo[4,5-c]pyridin-5(4H)-yl)(4-(trifluoromethyl)oxazol-5-yl)methanone] has an AC50 of no more than 0.5 µM.
For `CC(C)(O)c1nc(Br)c(C(=O)N2CCc3[nH]cnc3[C@@H]2c2nc3cc(F)ccc3o2)o1` [Example 123, (R)-(4-bromo-2-(2-hydroxypropan-2-yl)oxazol-5-yl)(4-(5-fluorobenzo[d]oxazol-2-yl)-6,7-dihydro-1H-imidazo[4,5-c]pyridin-5(4H)-yl)methanone], the AC50 was 1 to 5 µM.
With `CC(C)(O)c1nc(C(F)F)c(C(=O)N2CCc3[nH]cnc3[C@@H]2c2nc3c(F)cc(F)cc3o2)o1` [Example 300, (R)-(4-(4,6-difluorobenzo[d]oxazol-2-yl)-6,7-dihydro-1H-imidazo[4,5-c]pyridin-5(4H)-yl)(4-(difluoromethyl)-2-(2-hydroxypropan-2-yl)oxazol-5-yl)methanone] the AC50 was 1 to 5 µM.
For `O=C(CC1CC1)N1CCc2[nH]cnc2[C@H]1c1nc2cc(F)ccc2o1` [Example 37, (S)-2-cyclopropyl-1-(4-(5-fluorobenzo[d]oxazol-2-yl)-6,7-dihydro-1H-imidazo[4,5-c]pyridin-5(4H)-yl)ethanone], the AC50 was 1 to 5 µM.
With `COc1cccc2oc([C@H]3c4nc[nH]c4CCN3C(=O)c3ccnn3C(F)F)nc12` [Example 604, (R)-(1-(difluoromethyl)-1H-pyrazol-5-yl)(4-(4-methoxybenzo[d]oxazol-2-yl)-6,7-dihydro-1H-imidazo[4,5-c]pyridin-5(4H)-yl)methanone] the AC50 was 1 to 5 µM.
`O=C(c1nnc(-c2cc(C(F)(F)F)ccn2)o1)N1CCc2[nH]cnc2[C@@H]1c1nc2cc(F)ccc2o1` [Example 121, [(4R)-4-(5-fluoro-1,3-benzoxazol-2-yl)-1,4,6,7-tetrahydroimidazo[4,5-c]pyridin-5-yl]-[5-[4-(trifluoromethyl)-2-pyridyl]-1,3,4-oxadiazol-2-yl]methanone] gave an AC50 of 1 to 5 µM.
In the case of `Cc1ccc2oc([C@H]3c4nc[nH]c4CCN3C(=O)c3oc(-c4cncn4C)nc3C(F)F)nc2c1` [Example 757, (R)-(4-(difluoromethyl)-2-(1-methyl-1H-imidazol-5-yl)oxazol-5-yl)(4-(5-methylbenzo[d]oxazol-2-yl)-6,7-dihydro-1H-imidazo[4,5-c]pyridin-5(4H)-yl)methanone], the AC50 is reported as 1 to 5 µM.
`Cc1ccc2nc([C@@H]3c4nc[nH]c4CCN3C(=O)c3nnc(-c4ccccn4)o3)oc2c1` [Example 101, (S)-(4-(6-methylbenzo[d]oxazol-2-yl)-6,7-dihydro-1H-imidazo[4,5-c]pyridin-5(4H)-yl)(5-(pyridin-2-yl)-1,3,4-oxadiazol-2-yl)methanone] gave an AC50 of 0.5 to 1 µM.

Same assay, conditions: A375 cells expressing R408W PAH; 24 hrs with compound, then 20 μM sepiapterin and 800 μM 13C9,15N-Phenylalanine for 4 hours; 13C-Tyrosine by LC-MS; average where tested multiple times
`O=C(Cc1cnn2ccccc12)N1CCc2[nH]cnc2C1c1nc2cc(F)ccc2o1` (stereo not shown) showed an AC50 of no less than 5 µM.
Work on `CC(C)(O)c1ncc(C(=O)N2CCc3[nH]cnc3C2c2nc3ccc(F)c(F)c3o2)o1` (stereo not shown) yielded an AC50 of 1 to 5 µM.
In the case of `CCOC(=O)N1CCN(c2ccc3c(C(=O)N4CCc5[nH]cnc5C4c4nc5cc(F)ccc5o4)cnn3c2)CC1` (stereo not shown), the AC50 is reported as no less than 5 µM.
Compound `Cc1ncoc1C(=O)N1CCc2[nH]cnc2C1c1nc2cc(F)ccc2o1` (stereo not shown) has an AC50 of no less than 5 µM.
In the case of `CC(C)(O)c1nc(C(F)F)c(C(=O)N2CC(C)(C)c3[nH]cnc3C2c2nc3cc(F)ccc3o2)o1` (stereo not shown), the AC50 is reported as no less than 5 µM.

From patent US20250171437A1 (Agios Pharmaceuticals,Inc., priority 2022, published 2025)
